Counter-ions that a name gives are not always drawn. Like-named read-outs stand apart in the source and are kept apart here.
Experiments:
male NMRI-mice [1] = assay: minimum symptom dose (procedure of Campbell and Richter); assay type: in vivo, mouse; settings: i.p., changes in behavior in 2 out of 3 mice
Procedure: The minimum symptom dose is determined in male NMRI-mice (body weight range 18-22 g) according to the procedure of Campbell and Richter (see D.E.S. Campbell and W. Richter, Acta Pharmacol Toxicol, 25 (1967), pp 345-363). The minimum symptom dose is defined as that dose in μmol/kg which after i.p. administration causes changes in behavior in 2 out of 3 mice. The minimum symptom dose is a measure for evaluating undesirable side effects.

[2] = acute toxicity (LD50, 7th day after application); assay type: in vivo, mouse; settings: mouse, in vivo, male NMRI-mice, mortality on 7th day
Procedure: (§1) The acute toxicity of the compounds is determined in male NMRI-mice (body weight range 18-22 g) after oral (p.o) and intraperitonal (i.p.) administration. The LD50 is defined as that dose in μmole/kg which causes a 50% mortality rate of the test animals on the 7th day after application. The calculation of the LD50 is carried out by probitanalysis (see L. Cavalli-Sforza, Grundbegriffe der Biometrie, Gustav Fischer Verlag, Stuttgart, (1964)).

[3] = test system: isolated left atria of female guinea pigs; assay: functional refractory period (FRP) and contraction force (CF) in isolated left atria, double stimulus method of Govier; parameters: species or system guinea pig; settings: for IC25 / EC25: Cavia porcellus, 0.3 h; for IC25: read-out: CF (concentration reducing contraction force to 75% of starting value); for EC25: read-out: FRP (concentration prolonging functional refractory period to 125% of starting value); for ratio between contraction force-reducing dose and functional refractory period-prolonging dose (CF/FRP): indication of the therapeutic range of the antiarrhythmic effect on the isolated organ, 18 min
Procedure: The prolongation of the functional refractory period (FRP) and the contraction force (CF) in the isolated left atria of female guinea pigs (albino Pirbright-white guinea pigs, body weight 300-400 g) are determined according to the double stimulus method of Govier (see W.C. Govier, J. Pharmakol. Exp. Ther. 148 (1965) pp 100-105). The concentrations which are given in the table below are the concentrations in μmol/l which 18 minutes after application leads to a prolongation of the functional refractory period to 125% or respectively to a reduction of the contraction force to 75% of the starting value. Furthermore, the ratio between contraction force-reducing dose and functional refractory period-prolonging dose is given. This ratio is an indication of the therapeutic range of the antiarrhythmic effect on the isolate organ (see K. Gref, Verh. Dtsch. Ges. Kreislaufforsch. 35 (1969) pp 88-97).

male NMRI-mice [4] = assay: acute toxicity (LD50, 7th day after application); assay type: in vivo, mouse; settings: mortality on 7th day, 10080 min; for LD50 p.o.: oral
Procedure: as §1

[5] = ip, intraperitoneal, read-out: LD50 i.p.
[6] = isolated guinea pig left atria, 18 minutes after application

**Q.** Which “Min. Symptom-dose” value (male NMRI-mice [1]) does the source give for CCC1C2CC3C4N(C)c5ccc(Br)cc5C45CC(C2C5O)[N+]3(C)C1O (stereo not drawn) [Example 1.b, Nb-methyl-10-bromosandwicinium hydrogen tartrate] here?
**A.** Its value is 11 µmol/kg.

**Q.** And the LD50 at 168 h [2, 5]?
**A.** The LD50 at 168 h was 325 µmol/kg.

**Q.** And the LD50 at 168 h ([2]; po, read-out: LD50 p.o.)?
**A.** Its LD50 at 168 h is 1910 µmol/kg.

**Q.** And the IC25 [3, 6]?
**A.** Its IC25 is 20.2 µM.

**Q.** What about the EC25 [3, 6] of the same compound?
**A.** Its EC25 is 3.2 µM.

**Q.** What about the “ratio between contraction force-reducing dose and functional refractory period-prolonging dose (CF/FRP)” value [3] of the same compound?
**A.** Its value is 6.4.

**Q.** What does the source list for CCC[N+]12C(O)C(CC)C3CC1C1N(C)c4ccc(Br)cc4C14CC2C3C4O (stereo not drawn) [Example 2.b, Nb-n-propyl-10-bromosandwicinium hydrogen tartrate]?
**A.** Min. Symptom-dose (male NMRI-mice [1]): 42 µmol/kg; LD50 at 168 h [2, 5]: 101 µmol/kg; LD50 p.o. (male NMRI-mice [4]): 1133 µmol/kg; IC25 [3, 6]: 4.7 µM; EC25 [3, 6]: 1.4 µM; ratio between contraction force-reducing dose and functional refractory period-prolonging dose (CF/FRP) [3]: 3.3

**Q.** With CCCCCC[N+]12C(O)C(CC)C3CC1C1N(C)c4ccc(Br)cc4C14CC2C3C4O (stereo not drawn) [Example 4.b, Nb-n-hexyl-10-bromosandwicinium hydrogen tartrate] as the compound, how does the “Min. Symptom-dose” value (male NMRI-mice [1]) read?
**A.** The value was 39 µmol/kg.

**Q.** What about the LD50 at 168 h [2, 5] of the same compound?
**A.** The LD50 at 168 h was 112 µmol/kg.

**Q.** And the LD50 at 168 h ([2]; po, read-out: LD50 p.o.)?
**A.** The LD50 at 168 h was greater than 2300 µmol/kg.

**Q.** And the IC25 [3, 6]?
**A.** Its IC25 is 2 µM.

**Q.** And the EC25 [3, 6]?
**A.** The EC25 was 4.3 µM.

**Q.** What about the “ratio between contraction force-reducing dose and functional refractory period-prolonging dose (CF/FRP)” value [3] of the same compound?
**A.** Its value is 0.5.

**Q.** With CCC1C2CC3C4N(C)c5ccc(Br)cc5C45CC(C2C5O)[N+]3(CC(O)CN2CCCCC2)C1O (stereo not drawn) [Example 8, Nb-[2-hydroxy-3-(1-piperidinyl)propyl]-10-bromosandwicinium bishydrogen tartrate] as the compound, how does the “Min. Symptom-dose” value (male NMRI-mice [1]) read?
**A.** The value was 59 µmol/kg.

**Q.** And the LD50 at 168 h [2, 5]?
**A.** The LD50 at 168 h was 169 µmol/kg.

**Q.** And the LD50 at 168 h ([2]; po, read-out: LD50 p.o.)?
**A.** Its LD50 at 168 h is 1190 µmol/kg.

**Q.** What about the IC25 [3, 6] of the same compound?
**A.** The IC25 was 3.4 µM.

**Q.** And the EC25 [3, 6]?
**A.** The EC25 was 8.3 µM.

**Q.** What about the “ratio between contraction force-reducing dose and functional refractory period-prolonging dose (CF/FRP)” value [3] of the same compound?
**A.** The value was 0.4.

**Q.** Which “Min. Symptom-dose” value (male NMRI-mice [1]) does the source give for CCC[N+]12C(O)C(CC)C3CC1C1N(C)c4ccc(Br)cc4C14CC2C3C4O (stereo not drawn) [Example 12.b, Nb-n-propyl-10-bromoisosandwicinium hydrogen tartrate] here?
**A.** Its value is 10 µmol/kg.

**Q.** What about the LD50 i.p. (male NMRI-mice [4]; intraperitoneal) of the same compound?
**A.** The LD50 i.p. was 118 µmol/kg.

**Q.** What about the LD50 p.o. (male NMRI-mice [4]) of the same compound?
**A.** The LD50 p.o. was 566 µmol/kg.

**Q.** And the “ratio between contraction force-reducing dose and functional refractory period-prolonging dose (CF/FRP)” value [3]?
**A.** Its value is 3.6.

**Q.** What about the “CF (concentration reducing contraction force to 75% of starting value)” value [3, 6] of the same compound?
**A.** Its value is 6.5 µmol/L.

**Q.** What about the “FRP (concentration prolonging functional refractory period to 125% of starting value)” value [3, 6] of the same compound?
**A.** The value was 1.8 µmol/L.

**Q.** For CCC[N+]12C(O)C(CC)C3CC1C1N(C)c4ccccc4C14CC2C3C4O (stereo not drawn) [Neo-Gilurytmal, Nb -propylajmalinium hydrogen tartrate, reference compound], which “Min. Symptom-dose” value (male NMRI-mice [1]) is on record?
**A.** Its value is 12 µmol/kg.

**Q.** And the LD50 at 168 h [2, 5]?
**A.** Its LD50 at 168 h is 41 µmol/kg.

**Q.** And the LD50 at 168 h ([2]; po, read-out: LD50 p.o.)?
**A.** The LD50 at 168 h was 65 µmol/kg.

**Q.** And the IC25 [3, 6]?
**A.** Its IC25 is 0.26 µM.

**Q.** What about the EC25 [3, 6] of the same compound?
**A.** Its EC25 is 1.8 µM.

**Q.** What about the “ratio between contraction force-reducing dose and functional refractory period-prolonging dose (CF/FRP)” value [3] of the same compound?
**A.** Its value is 0.15.

Source: patent US4552877A, “Nb -Quaternary derivatives of sandwicine and isosandwicine methods and intermediate products in the manufacture of their derivatives and methods of using same and pharmaceutical compositions thereof” (Kali-Chemie Pharma GmbH, priority 1979, dated 1985)
